Consider 7 molecules from ChEMBL document CHEMBL3244110, “Synthesis and biological evaluation of some 2-amino-4-aryl-3H-1,5-benzodiazepine analogues of clozapine” (J Med Chem, 1978).

Calls of active or inactive are those of the source. The calls are words filed in the database; no cut-off is given here.

The subject of data set [1] is Mus musculus. Description: Antipsychotic activity in mouse assessed as increase in brain dopamine turnover at 25 to 30 mg/kg, ip pretreated with 200 mg/kg, ip alpha-methyl-p-tyrosine tyrosine hydroxylase inhibitor. In kind it is functional, organism-based.
Data set [2] deals with Mus musculus. Briefly: Toxicity in mouse assessed as depression at 50 mg/kg, ip. Set-up: dose 50 mg/kg, route intraperitoneal. Conditions: in vivo. In kind it is organism-based.
For data set [3], the system named is Mus musculus. Description: Antipsychotic activity in mouse assessed as protection against amphetamine-induced lethality at 50 mg/kg, ip treated 30 mins before amphetamine challenge. Also on record: dose 50 mg/kg. In kind it is functional, organism-based.
The test system of data set [4] is Mus musculus. Description: Toxicity in mouse assessed as ptosis at 50 mg/kg, ip. It counts as organism-based. Set-up: dose 50 mg/kg, route intraperitoneal. Conditions: in vivo.
For data set [5], the system named is Rattus norvegicus. Description: Antipsychotic activity in 0.2 mA footshock-induced conditioned stimulus rat assessed as decrease in avoidance response at 20 mg/kg, ip after 30 mins. In kind it is functional, organism-based. Set-up: dose 20 mg/kg.
The test system of data set [6] is Mus musculus. Briefly: Toxicity in mouse assessed as depression at 20 mg/kg, ip. In kind it is organism-based. Set-up: dose 20 mg/kg, route intraperitoneal. The following applies: in vivo.
Data set [7] has as its target Adenylate cyclase (Rattus norvegicus) (UniProt D4A3N4+P26770+Q04400+P26769+Q03343+P40146+Q8CFM9+P21932). Briefly: Inhibition of dopamine-sensitive rat brain adenylyl cyclase activity assessed as cAMP level at 10^-4 M. On the technique in general: Cyclic AMP is a second messenger, typically raised through Gs and lowered through Gi signalling.
Data set [8] has as its system Rattus norvegicus. Description: Antipsychotic activity in 0.2 mA footshock-induced conditioned stimulus rat assessed as decrease in avoidance response at 5 mg/kg, ip after 30 mins. In kind it is functional, organism-based. Set-up: dose 5 mg/kg.
In data set [9] the test system is Mus musculus. Description: Antipsychotic activity in mouse assessed as protection against amphetamine-induced lethality at 5 mg/kg, ip treated 30 mins before amphetamine challenge. It counts as functional, organism-based. Set-up: dose 5 mg/kg.
Another data set has as its target Adenylate cyclase. Description: Inhibition of dopamine-sensitive rat brain adenylyl cyclase activity assessed as cAMP level.
Data set [10] relates to Mus musculus. Briefly: Toxicity in mouse assessed as tremors at 50 mg/kg, ip. It counts as organism-based. Also on record: dose 50 mg/kg, route intraperitoneal. Conditions: in vivo.
In data set [11] the test system is Mus musculus. Briefly: Toxicity in mouse assessed as depression at 5 mg/kg, ip. The following applies: in vivo. It counts as organism-based. Also on record: dose 5 mg/kg, route intraperitoneal.
Data set [12] relates to Mus musculus. Briefly: Toxicity in mouse assessed as ptosis at 30 mg/kg, ip. It counts as organism-based. Also on record: dose 30 mg/kg, route intraperitoneal. The following applies: in vivo.

In the case of `CN1CCN(C2=Nc3ccccc3N=C(c3ccc(F)cc3)C2)CC1`, the outcome with Mus musculus [1] and with Rattus norvegicus [5] was Active. Moreover, the Activity result in the data set on Mus musculus [2], in the data set on Mus musculus [4] and in the data set on Mus musculus [6] was “Toxic” throughout. Moreover, the result in the data set on Mus musculus [3], in the data set on Rattus norvegicus [8] and with Mus musculus [9] was inactive. Further, in data set [7], the inhibition – broadly, the share of the control response that was lost under treatment – is 46%.
As for `c1ccc(C2=Nc3ccccc3N=C(N3CCC(c4ccccc4)CC3)C2)cc1`, the outcome with Mus musculus [1], with Mus musculus [3] and in the data set with Mus musculus [9] was Active. For the same molecule, the IC50 on Adenylate cyclase is listed as 4.5 ×10⁻⁵ M. Besides, the Activity entry in the data set with Mus musculus [4] is listed as “Toxic”. For the same molecule, the result with Rattus norvegicus [5] and in the data set on Rattus norvegicus [8] was inactive.
On to `Cc1cc2c(cc1C)N=C(N1CCN(C)CC1)CC(c1ccccc1)=N2`, for which the outcome with Mus musculus [1] and with Rattus norvegicus [5] was Active. Also, the Activity entry in the data set on Mus musculus [10] and with Mus musculus [6] was “Toxic” in each case. The result in the data set with Mus musculus [3], in the data set on Rattus norvegicus [8] and with Mus musculus [9] was inactive. The inhibition entry in data set [7] was “inactive”.
As to `Cc1ccc(C2=CCN(C3=Nc4ccccc4N=C(c4ccccc4)C3)CC2)cc1`, the outcome in the data set with Mus musculus [1], with Mus musculus [3], in the data set on Rattus norvegicus [5] and with Rattus norvegicus [8] was Active. Moreover, the Activity result in the data set with Mus musculus [11] and in the data set on Mus musculus [6] was “Toxic” in each case. Besides, the inhibition in [7] amounted to 27%. Besides, the outcome with Mus musculus [9] was inactive.
For `Fc1ccc(C2=Nc3ccccc3N=C(N3CCC(c4ccccc4)CC3)C2)cc1`, the outcome in the data set on Mus musculus [1] and with Rattus norvegicus [5] was inactive. Moreover, the result with Mus musculus [3], in the data set on Rattus norvegicus [8] and with Mus musculus [9] was Active. In addition, the Activity result with Mus musculus [11] was “Toxic”. Also, in data set [7], the inhibition entry is “inactive”.
For `CN1CCN(C2=Nc3cc(Cl)ccc3Nc3ccccc32)CC1` [CLOZAPINE], the result in the data set with Mus musculus [1], with Mus musculus [3], in the data set on Rattus norvegicus [5], in the data set on Rattus norvegicus [8] and with Mus musculus [9] was Active. Moreover, the IC50 at Adenylate cyclase was determined as 1.4 ×10⁻⁷ M.
Take `Clc1ccc(C2CCN(C3=Nc4ccccc4N=C(c4ccccc4)C3)CC2)cc1`: the result with Mus musculus [1], in the data set with Mus musculus [3], in the data set with Rattus norvegicus [5] and in the data set with Rattus norvegicus [8] was inactive. In addition, the Activity result with Mus musculus [12] was “Toxic”. The result in the data set on Mus musculus [9] was Active.
